# Measurements taken from patent publication US6737383B1, “Herbicidal oxadiazolidines” (priority 1999, dated 2004).
# What was measured:
# [1] = tested on: Alexandergrass; experiment: Test D Alexandergrass; assay type: in vivo, Brachiaria plantaginea; settings: Preemergence, 0 to 100 scale
# Procedure, shortened: (§1)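 Weed seeds planted in sandy loam; species kept apart in individual pots or compartments. Preemergence tests: treatment to soil surface within one day. Greenhouse growth, then visual injury scoring at 14–21 days (0–100).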
# [2] = tested on: common pursiane; experiment: Test D common purslane; assay type: in vivo, Portulaca oleracea
# Procedure, shortened: as §1
# [3] = tested on: common ragweed; experiment: Test D common ragweed; assay type: in vivo, Ambrosia elatior; settings: Preemergence, 0 to 100 scale
# Procedure, shortened: as §1
# [4] = tested on: common groundsel; experiment: Test D common groundsel; assay type: in vivo, Senecio vulgaris; settings: Preemergence, 0 to 100 scale
# Procedure, shortened: as §1
# [5] = tested on: dallisgrass; experiment: Test D dallisgrass; assay type: in vivo, Paspalum dilatatum; settings: Preemergence, 0 to 100 scale
# Procedure, shortened: as §1
# [6] = tested on: goosegrass; experiment: Test D goosegrass; assay type: in vivo, Eleusine indica; settings: Preemergence, 0 to 100 scale
# Procedure, shortened: as §1
# [7] = tested on: guineagrass; experiment: Test D guineagrass; assay type: in vivo, Panicum maximum; settings: Preemergence, 0 to 100 scale
# Procedure, shortened: as §1
# [8] = tested on: large crabgrass; experiment: Test D large crabgrass; assay type: in vivo, Digitaria sanguinalis; settings: Preemergence, 0 to 100 scale
# Procedure, shortened: as §1
# [9] = tested on: pitted morningglory; experiment: Test D pitted morningglory; assay type: in vivo, Ipomoea lacunosa; settings: Preemergence, 0 to 100 scale
# Procedure, shortened: as §1
# [10] = tested on: purple nutsedge; experiment: Test D purple nutsedge; assay type: in vivo, Cyperus rotundus; settings: Preemergence, 0 to 100 scale
# Procedure, shortened: as §1
# [11] = tested on: sandbur; experiment: Test D sandbur; assay type: in vivo, Cenchrus echinatus; settings: Preemergence, 0 to 100 scale
# Procedure, shortened: as §1
# [12] = tested on: Spanishneedles; experiment: Test D Spanishneedles; assay type: in vivo, Bidens bipinnata; settings: Preemergence, 0 to 100 scale
# Procedure, shortened: as §1
# [13] = tested on: surinam grass; experiment: Test D surinam grass; assay type: in vivo, Brachiaria decumbens; settings: Preemergence, 0 to 100 scale
# Procedure, shortened: as §1
# [14] = tested on: tall mallow; experiment: Test D tall mallow; assay type: in vivo, Malva sylvestris; settings: Preemergence, 0 to 100 scale
# Procedure, shortened: as §1
# [15] = tested on: Green foxtail; experiment: Test D green foxtail; assay type: in vivo
# Procedure, shortened: as §1
# [16] = Rate 16 g/ha, 0 no injury, 100 complete control
# [17] = Rate 32 g/ha, 0 no injury, 100 complete control
# [18] = Rate 64 g/ha, 0 no injury, 100 complete control
# [19] = Rate 125 g/ha, 0 no injury, 100 complete control
# [20] = Rate 16 g/ha; Preemergence; 0 to 100 scale, 0 no injury, 100 complete control
# [21] = Rate 32 g/ha; Preemergence; 0 to 100 scale, 0 no injury, 100 complete control
# [22] = Rate 64 g/ha, Preemergence; 0 to 100 scale, 0 no injury, 100 complete control
# [23] = Rate 125 g/ha, Preemergence; 0 to 100 scale, 0 no injury, 100 complete control
# [24] = Preemergence; Rate 16 g/ha; 0 to 100 scale, 0 no injury, 100 complete control
# [25] = Preemergence; Rate 32 g/ha; 0 to 100 scale, 0 no injury, 100 complete control
# [26] = Rate 250 g/ha; Preemergence; 0 to 100 scale
# [27] = Rate 500 g/ha, Preemergence; 0 to 100 scale
compound,measurement,setting,value
Cc1cccc(C)c1-n1c(=O)on(C(=O)N(c2ccc(F)cc2)C(C)C)c1=O [Compound 18],"Plant response rating, Alexandergrass",[1]; [16],0
same,"Plant response rating, Alexandergrass",[1]; [17],0
same,"Plant response rating, Alexandergrass",[1]; [18],0
same,"Plant response rating, Alexandergrass",[1]; [19],30
same,"Plant response rating, C. purslane",[2]; [20],0
same,"Plant response rating, C. purslane",[2]; [21],0
same,"Plant response rating, C. purslane",[2]; [22],0
same,"Plant response rating, C. purslane",[2]; [23],0
same,"Plant response rating, C. ragweed",[3]; [16],0
same,"Plant response rating, C. ragweed",[3]; [17],0
same,"Plant response rating, C. ragweed",[3]; [18],0
same,"Plant response rating, C. ragweed",[3]; [19],0
same,"Plant response rating, Com. groundsel",[4]; [16],0
same,"Plant response rating, Com. groundsel",[4]; [17],0
same,"Plant response rating, Com. groundsel",[4]; [18],0
same,"Plant response rating, Com. groundsel",[4]; [19],0
same,"Plant response rating, Dallisgrass",[5]; [16],0
same,"Plant response rating, Dallisgrass",[5]; [17],0
same,"Plant response rating, Dallisgrass",[5]; [18],85
same,"Plant response rating, Dallisgrass",[5]; [19],100
same,"Plant response rating, Goosegrass",[6]; [16],0
same,"Plant response rating, Goosegrass",[6]; [17],0
same,"Plant response rating, Goosegrass",[6]; [18],85
same,"Plant response rating, Goosegrass",[6]; [19],85
same,"Plant response rating, Guineagrass",[7]; [16],0
same,"Plant response rating, Guineagrass",[7]; [17],0
same,"Plant response rating, Guineagrass",[7]; [18],30
same,"Plant response rating, Guineagrass",[7]; [19],65
same,Plant response rating Large crabgrass,[8]; [16],0
same,Plant response rating Large crabgrass,[8]; [17],0
same,Plant response rating Large crabgrass,[8]; [18],98
same,Plant response rating Large crabgrass,[8]; [19],100
same,"Plant response rating, P. morninglory",[9]; [16],0
same,"Plant response rating, P. morninglory",[9]; [17],0
same,"Plant response rating, P. morninglory",[9]; [18],0
same,"Plant response rating, P. morninglory",[9]; [19],0
same,"Plant response rating, Purple nutsedge",[10]; [16],0
same,"Plant response rating, Purple nutsedge",[10]; [17],0
same,Purple nutsedge plant response rating,[10]; [18],0
same,Purple nutsedge plant response rating,[10]; [19],0
same,"Plant response rating, Sandbur",[11]; [16],0
same,"Plant response rating, Sandbur",[11]; [17],0
same,Sandbur plant response rating,[11]; [18],0
same,Sandbur plant response rating,[11]; [19],0
same,"Plant response rating, Spanishneedles",[12]; [16],0
same,"Plant response rating, Spanishneedles",[12]; [17],0
same,Spanishneedles plant response rating,[12]; [18],0
same,Spanishneedles plant response rating,[12]; [19],0
same,"Plant response rating, Surinam grass",[13]; [16],0
same,"Plant response rating, Surinam grass",[13]; [17],0
same,Surinam grass plant response rating,[13]; [18],0
same,Surinam grass plant response rating,[13]; [19],20
same,"Plant response rating, Tall Mallow",[14]; [16],0
same,"Plant response rating, Tall Mallow",[14]; [17],0
same,Tall Mallow plant response rating,[14]; [18],0
same,Tall Mallow plant response rating,[14]; [19],0
same,"Plant response rating, Green foxtail",[15]; [24],0
same,"Plant response rating, Green foxtail",[15]; [25],0
same,"Plant response rating, Green foxtail",[15]; [20],0
same,"Plant response rating, Green foxtail",[15]; [21],0
same,Green foxtail plant response rating,[15]; [22],85
same,"Plant response rating, Green foxtail",[15]; [22],85
same,Green foxtail plant response rating,[15]; [23],85
same,"Plant response rating, Green foxtail",[15]; [23],85
CC(C)N(C(=O)n1oc(=O)n(C2CCCCC2)c1=O)c1ccc(F)cc1F [Compound 115],"Plant response rating, Alexandergrass",[1]; [16],0
same,"Plant response rating, Alexandergrass",[1]; [17],20
same,"Plant response rating, Alexandergrass",[1]; [18],50
same,"Plant response rating, Alexandergrass",[1]; [19],75
same,"Plant response rating, Alexandergrass",[1]; Rate 250 g/ha,85
same,"Plant response rating, Alexandergrass",[1]; Rate 500 g/ha,100
same,"Plant response rating, C. purslane",[2]; [20],0
same,"Plant response rating, C. purslane",[2]; [21],0
same,"Plant response rating, C. purslane",[2]; [22],0
same,"Plant response rating, C. purslane",[2]; [23],0
same,"Plant response rating, C. purslane",[2]; [26],0
same,"Plant response rating, C. purslane",[2]; [27],20
same,"Plant response rating, C. purslane",[2]; Rate 500 g/ha; Preemergence; 0 to 100 scale,0
same,"Plant response rating, C. ragweed",[3]; [16],0
same,"Plant response rating, C. ragweed",[3]; [17],0
same,"Plant response rating, C. ragweed",[3]; [18],0
same,"Plant response rating, C. ragweed",[3]; [19],10
same,"Plant response rating, C. ragweed",[3]; Rate 250 g/ha,20
same,"Plant response rating, C. ragweed",[3]; Rate 500 g/ha,20
same,"Plant response rating, Com. groundsel",[4]; [16],0
same,"Plant response rating, Com. groundsel",[4]; [17],0
same,"Plant response rating, Com. groundsel",[4]; [18],10
same,"Plant response rating, Com. groundsel",[4]; [19],10
same,"Plant response rating, Com. groundsel",[4]; Rate 250 g/ha,10
same,"Plant response rating, Com. groundsel",[4]; Rate 500 g/ha,98
same,"Plant response rating, Dallisgrass",[5]; [16],0
same,"Plant response rating, Dallisgrass",[5]; [17],75
same,"Plant response rating, Dallisgrass",[5]; [18],75
same,"Plant response rating, Dallisgrass",[5]; [19],98
same,"Plant response rating, Dallisgrass",[5]; Rate 250 g/ha,98
same,"Plant response rating, Dallisgrass",[5]; Rate 500 g/ha,100
same,"Plant response rating, Goosegrass",[6]; [16],20
same,"Plant response rating, Goosegrass",[6]; [17],85
same,"Plant response rating, Goosegrass",[6]; [18],90
same,"Plant response rating, Goosegrass",[6]; [19],98
same,"Plant response rating, Goosegrass",[6]; Rate 250 g/ha,100
same,"Plant response rating, Goosegrass",[6]; Rate 500 g/ha,100
same,"Plant response rating, Guineagrass",[7]; [16],0
same,"Plant response rating, Guineagrass",[7]; [17],30
same,"Plant response rating, Guineagrass",[7]; [18],30
same,"Plant response rating, Guineagrass",[7]; [19],85
same,"Plant response rating, Guineagrass",[7]; Rate 250 g/ha,98
same,"Plant response rating, Guineagrass",[7]; Rate 500 g/ha,100
same,Plant response rating Large crabgrass,[8]; [16],75
same,Plant response rating Large crabgrass,[8]; [17],75
same,Plant response rating Large crabgrass,[8]; [18],85
same,Plant response rating Large crabgrass,[8]; [19],100
same,Plant response rating Large crabgrass,[8]; Rate 250 g/ha,100
same,Plant response rating Large crabgrass,[8]; Rate 500 g/ha,100
same,"Plant response rating, P. morninglory",[9]; [16],0
same,"Plant response rating, P. morninglory",[9]; [17],0
same,"Plant response rating, P. morninglory",[9]; [18],0
same,"Plant response rating, P. morninglory",[9]; [19],0
same,"Plant response rating, P. morninglory",[9]; Rate 250 g/ha,0
same,"Plant response rating, P. morninglory",[9]; Rate 500 g/ha,10
same,"Plant response rating, Purple nutsedge",[10]; [16],0
same,"Plant response rating, Purple nutsedge",[10]; [17],0
same,Purple nutsedge plant response rating,[10]; [18],0
same,Purple nutsedge plant response rating,[10]; [19],0
same,"Plant response rating, Purple nutsedge",[10]; Rate 250 g/ha,0
same,"Plant response rating, Purple nutsedge",[10]; Rate 500 g/ha,0
same,"Plant response rating, Sandbur",[11]; [16],0
same,"Plant response rating, Sandbur",[11]; [17],0
same,Sandbur plant response rating,[11]; [18],0
same,Sandbur plant response rating,[11]; [19],40
same,"Plant response rating, Sandbur",[11]; Rate 250 g/ha,50
same,"Plant response rating, Sandbur",[11]; Rate 500 g/ha,100
same,"Plant response rating, Spanishneedles",[12]; [16],0
same,"Plant response rating, Spanishneedles",[12]; [17],0
same,Spanishneedles plant response rating,[12]; [18],0
same,Spanishneedles plant response rating,[12]; [19],0
same,"Plant response rating, Spanishneedles",[12]; Rate 500 g/ha,10
same,"Plant response rating, Surinam grass",[13]; [16],0
same,"Plant response rating, Surinam grass",[13]; [17],20
same,Surinam grass plant response rating,[13]; [18],65
same,Surinam grass plant response rating,[13]; [19],75
same,"Plant response rating, Surinam grass",[13]; Rate 250 g/ha,75
same,"Plant response rating, Surinam grass",[13]; Rate 500 g/ha,85
same,"Plant response rating, Tall Mallow",[14]; [16],0
same,"Plant response rating, Tall Mallow",[14]; [17],0
same,Tall Mallow plant response rating,[14]; [18],0
same,Tall Mallow plant response rating,[14]; [19],0
same,"Plant response rating, Tall Mallow",[14]; Rate 250 g/ha,0
same,"Plant response rating, Tall Mallow",[14]; Rate 500 g/ha,0
same,"Plant response rating, Green foxtail",[15]; [24],0
same,"Plant response rating, Green foxtail",[15]; [25],70
same,"Plant response rating, Green foxtail",[15]; [20],0
same,"Plant response rating, Green foxtail",[15]; [21],75
same,Green foxtail plant response rating,[15]; [22],85
same,"Plant response rating, Green foxtail",[15]; [22],85
same,Green foxtail plant response rating,[15]; [23],100
same,"Plant response rating, Green foxtail",[15]; [23],100
same,"Plant response rating, Green foxtail",[15]; [26],100
same,"Plant response rating, Green foxtail",[15]; [27],100
